Assay results taken from the CheMixHub viscosity set.

Assay: xn = mol fraction of the nth substance listed

N#C[S-].[NH4+] + CCOS(=O)(=O)[O-].CC[n+]1ccn(C)c1
viscosity [mPa·s], 101 kPa
Settings	x1 = 0.0235	x1 = 0.1553	x1 = 0.3025	x1 = 0.4042	x1 = 0.5205	x1 = 0.565	x1 = 0.5997
298.15 K	103.1	150	209.3	231.1	223.9	215.9	208.9
303.15 K	81.26	118	163.3	178.7	173.4	172.5	168.2
308.15 K	65.16	94.31	129.6	140.9	135.3	133.9	133.7
313.15 K	53.09	76.57	104.6	112.9	107.5	106	105.4
318.15 K	43.86	63.03	85.57	91.83	86.87	85.31	84.57
323.15 K	36.68	52.56	70.9	75.56	71.22	69.75	68.92

FB(F)F + CCOc1ccccc1
viscosity [mPa·s], 101 kPa
Settings	293.15 K	298.15 K	303.15 K
x1 = 0.00901	1.29	1.18	1.08
x1 = 0.1455	1.53	1.39	1.27
x1 = 0.2874	2.42	2.17	1.96
x1 = 0.3269	2.79	2.51	2.25
x1 = 0.3742	3.38	3.01	2.68
x1 = 0.3817	3.48	3.1	2.74
x1 = 0.4143	4	3.52	3.08
x1 = 0.4429	4.57	3.97	3.5
x1 = 0.456	4.87	4.24	3.7
x1 = 0.4744	5.39	4.69	4.06
x1 = 0.4962	6.02	5.19	4.48

N#C[S-].[NH4+] + CCn1cc[n+](C)c1.N#C[S-]
viscosity [mPa·s], 100 kPa
Settings	298.15 K	303.15 K	308.15 K	313.15 K	318.15 K	323.15 K
x1 = 0.039	25.91	21.97	18.84	16.11	14.28	12.59
x1 = 0.099	29.91	25.16	21.4	18.21	16	14.03
x1 = 0.1395	31.58	26.49	22.47	19.09	16.71	14.62

Brc1ccccc1 + CN1CCCC1=O
viscosity [mPa·s], 101 kPa
Settings	x2 = 0.1084	x2 = 0.2149	x2 = 0.3193	x2 = 0.4219	x2 = 0.5226	x2 = 0.6215	x2 = 0.7186	x2 = 0.8141	x2 = 0.9078
303.15 K	1.068	1.146	1.22	1.284	1.344	1.396	1.441	1.484	1.522
308.15 K	1.023	1.089	1.148	1.201	1.25	1.29	1.326	1.358	1.382
313.15 K	0.9408	1.005	1.061	1.113	1.159	1.199	1.236	1.268	1.295
318.15 K	0.8512	0.9073	0.9593	1.008	1.052	1.09	1.126	1.157	1.184

BrCCBr + CN1CCC[C@H]1c1cccnc1
viscosity [mPa·s], 101.33 kPa
Settings	x2 = 0.121	x2 = 0.2341	x2 = 0.3736	x2 = 0.4915	x2 = 0.613	x2 = 0.7575	x2 = 0.8734
298.15 K	1.765	1.939	2.233	2.523	2.804	3.055	3.341
323.15 K	1.2	1.383	1.466	1.599	1.714	1.838	1.884

Brc1ccccc1 + CN(C)C=O
viscosity [mPa·s], 101.33 kPa
Settings	x2 = 0.0879	x2 = 0.2075	x2 = 0.3085	x2 = 0.4055	x2 = 0.5063	x2 = 0.6027	x2 = 0.6877	x2 = 0.8054	x2 = 0.9001	x2 = 0.9002
303.15 K	0.982	0.973	0.963	0.949	0.931	0.905	0.879	0.831	–	0.789
313.15 K	0.889	0.879	0.87	0.854	0.838	0.816	0.792	0.749	0.711	–

C1COCCO1 + CN(C)C=O
viscosity [mPa·s], 101 kPa
Settings	x2 = 0.1181	x2 = 0.2316	x2 = 0.3406	x2 = 0.4455	x2 = 0.5465	x2 = 0.6439	x2 = 0.7377	x2 = 0.8282	x2 = 0.9156
298.15 K	1.109	1.043	0.984	0.934	0.891	0.859	0.835	0.82	0.811
308.15 K	0.952	0.899	0.849	0.807	0.772	0.746	0.726	0.714	0.708
318.15 K	0.843	0.797	0.753	0.713	0.68	0.653	0.636	0.624	0.618

CCCCCC(=O)[O-].C[NH2+]c1ccccc1 + CN(C)C=O
viscosity [mPa·s], 101 kPa
Settings	x1 = 0.004889	x1 = 0.008423	x1 = 0.01411	x1 = 0.01792	x1 = 0.02131	x1 = 0.02717	x1 = 0.0305	x1 = 0.03458
293.15 K	0.957	0.969	0.992	1.009	1.026	1.052	1.072	1.099
298.15 K	0.916	0.926	0.946	0.961	0.975	0.998	1.016	1.038
303.15 K	0.879	0.887	0.905	0.918	0.93	0.95	0.966	0.985
308.15 K	0.846	0.854	0.869	0.881	0.891	0.909	0.923	0.94
313.15 K	0.817	0.824	0.837	0.847	0.857	0.873	0.884	0.899
318.15 K	0.791	0.797	0.809	0.818	0.826	0.84	0.85	0.863
323.15 K	0.767	0.772	0.784	0.791	0.798	0.812	0.82	0.831
